Experimental findings from patent US20200163984A1, “USE OF ISOVALERYL SPIRAMYCIN I, II AND/OR III IN MANUFACTURING MEDICAMENT FOR TREATING AND/OR PREVENTING TUMOR, AND MEDICAMENT” (SHENYANG FUYANG PHARMACEUTICAL TECHNOLOGY CO., LTD., priority 2017, published 2020) are described below.

In this series the test system is transplanted tumor of human glioblastoma cell A172. To be noted: 50 mg/kg. The method, then:
Then cell concentration was adjusted to 1×10^7/ml with matrigel, then each nude mouse was inoculated subcutaneously with 0.2 ml of cells at its right armpit and recorded as the first day of inoculation. When the tumor grows to be greater than or equal to 100 mm^3, the mice were randomly divided into 11 groups with 6 mice in each group: a model group, a temozolomide group, […], […], […] Each group was continuously administered intragastrically for 30 days with a dose of 20 ml/kg. The mice were sacrificed the next day after drug withdrawal and the indicators were tested. The long diameter and short diameter of the tumor, and the body weight of each mouse were recorded every 3 days from drug administration to nude mouse sacrifice.
The body weight of the nude mice and the long diameter (a) and short diameter (b) of the transplanted tumor were measured every 3 days, and the tumor volume (v), relative tumor volume (RTV) and relative tumor proliferation rate (T/C) are calculated respectively according to the following formulas, wherein V=a×b^2/2; RTV=V/V0 (V0 is the tumor volume before administration, V is the tumor volume before sacrifice), and T/C (%)=treatment group RTV/model control group RTV×100%.
Each mouse was weighed and sacrificed. After the tumor was completely stripped off from the body of the mouse, the non-tumor tissues such as blood stains and fat were removed to weigh the tumor and calculate the tumor growth inhibition rate. The average tumor weight of each group of mice is used as an indicator of efficacy. Tumor growth inhibition rate (%)=(1−the average tumor weight of the treatment group/the average tumor weight of the model group)×100%.

For the compound `Cn1nnc2c(C(N)=O)ncn2c1=O` [temozolomide, reference compound], under “A172 nude mice”, the “Inhibition Rate (%)” value amounted to 68.89%, the “Relative Tumor Proliferation Rate (T/C)” value amounted to 61.35%, the “Relative Tumor Volume (RTV)” value is on record as 4.12 ± 2.03 and the “Tumor Weight” value is listed as 0.43 ± 0.06 g. The “Tumor Volume (mm3) (d 1)” value (A172 nude mice, d1) is listed as 116.6 ± 10.91 mm3. Also, the “Tumor Volume (mm3) (d30)” value (A172 nude mice, d30) was 482.11 ± 89.74 mm3. Besides, where the note is “mouse, in vivo”, the “Body Weight (g) (d1)” value came out at 21.07 ± 0.57 g and the “Body Weight (g) (d30)” value came to 19.83 ± 1.24 g.
